Consider 27 compounds from US12084434B2 (Scorpion Therapeutics, Inc., priority 2021, dated 2024).

In one experiment the target is T1, PI3Kα H1047R protein (p110-α H1047R complexed with truncated p85-α) (Homo sapiens, UniProt P42336, H1047R).
T1 construct: The protein contained a full-length p110-α subunit harboring the H1047R mutation
T1 sequence (P42336 whole entry H1047R, the tested form may be a part): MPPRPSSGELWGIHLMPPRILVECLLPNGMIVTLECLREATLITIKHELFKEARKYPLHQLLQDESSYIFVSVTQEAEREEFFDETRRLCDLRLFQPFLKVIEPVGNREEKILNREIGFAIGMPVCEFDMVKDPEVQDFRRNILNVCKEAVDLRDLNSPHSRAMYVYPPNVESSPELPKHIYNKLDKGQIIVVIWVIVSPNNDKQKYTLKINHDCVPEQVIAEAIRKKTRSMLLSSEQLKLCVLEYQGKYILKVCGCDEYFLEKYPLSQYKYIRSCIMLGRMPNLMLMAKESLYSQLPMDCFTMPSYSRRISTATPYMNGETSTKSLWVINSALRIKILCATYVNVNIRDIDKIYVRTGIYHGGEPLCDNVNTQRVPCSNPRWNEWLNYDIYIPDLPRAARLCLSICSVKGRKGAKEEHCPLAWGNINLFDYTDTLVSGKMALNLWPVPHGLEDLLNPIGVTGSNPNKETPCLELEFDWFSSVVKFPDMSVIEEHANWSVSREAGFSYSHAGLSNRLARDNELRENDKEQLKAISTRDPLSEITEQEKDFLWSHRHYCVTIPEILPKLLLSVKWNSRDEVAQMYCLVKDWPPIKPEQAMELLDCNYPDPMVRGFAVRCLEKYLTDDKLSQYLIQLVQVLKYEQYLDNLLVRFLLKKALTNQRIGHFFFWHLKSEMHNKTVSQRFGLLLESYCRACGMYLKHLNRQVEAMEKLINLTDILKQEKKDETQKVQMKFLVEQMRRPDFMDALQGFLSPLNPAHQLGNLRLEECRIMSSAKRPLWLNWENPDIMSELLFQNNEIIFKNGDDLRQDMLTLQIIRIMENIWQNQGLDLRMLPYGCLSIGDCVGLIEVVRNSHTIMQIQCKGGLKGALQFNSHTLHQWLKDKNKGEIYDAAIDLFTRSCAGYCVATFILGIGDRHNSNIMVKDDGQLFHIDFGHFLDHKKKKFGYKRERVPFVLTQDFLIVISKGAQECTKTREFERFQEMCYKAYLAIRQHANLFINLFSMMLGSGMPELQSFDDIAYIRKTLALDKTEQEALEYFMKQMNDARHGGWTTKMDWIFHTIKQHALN
T1 sequence (P27986 322-694 partner limits assumed): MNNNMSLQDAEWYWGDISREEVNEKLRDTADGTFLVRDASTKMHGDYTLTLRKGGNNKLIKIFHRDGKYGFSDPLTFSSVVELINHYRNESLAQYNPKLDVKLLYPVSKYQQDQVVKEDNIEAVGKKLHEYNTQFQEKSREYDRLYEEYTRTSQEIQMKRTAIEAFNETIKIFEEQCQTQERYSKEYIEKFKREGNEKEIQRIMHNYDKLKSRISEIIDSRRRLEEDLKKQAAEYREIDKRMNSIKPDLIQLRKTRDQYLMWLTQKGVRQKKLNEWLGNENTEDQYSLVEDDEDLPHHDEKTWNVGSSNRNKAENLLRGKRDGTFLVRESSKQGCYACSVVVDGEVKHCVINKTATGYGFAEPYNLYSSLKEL
Kind of experiment: Surface Plasmon Resonance (SPR) binding, wortmannin-blocked protein. The settings on record: Biacore 8K, ATP site blocked with 1 μM wortmannin, 25° C. As to the method:
Surface Plasmon Resonance (SPR)
SPR experiments were performed on a Biacore 8K instrument. A biotinylated recombinant PI3Kα H1047R protein was used in this study. The protein contained a full-length p110-α subunit harboring the H1047R mutation with an N-terminal AviTag, complexed with a truncated p85-α subunit (amino acid residues 322-694). The protein was first incubated with 1 μM wortmannin for 30 min at RT to covalently block the ATP binding site, then immobilized onto a streptavidin sensor chip by flowing the protein through the sensor chip at typically 20 μg/mL concentration and 2 μL/min flow rate for 1200 seconds. Compound binding affinities were measured in the multi-cycle kinetics mode, at 90 μL/min flow rate with 90 seconds association time and 240 seconds dissociation time. The running buffer contained 50 mM Tris, pH 7.5, 150 mM NaCl, 0.01% Brij35, 1 mM DTT, 1 mM MgCl2, 0.05% Tween-20 and 2% DMSO. Temperature was maintained at 25° C. during experiments.
A general note: Surface plasmon resonance follows binding to a sensor surface in real time, without labels.
Regarding `Cc1c([C@@H](NC(=O)Nc2ccc(C(=O)N(C)C)nc2)C(C)C)oc2ccc(F)cc12` [Compound 65, (S)-5-(3-(1-(5-fluoro-3-methylbenzofuran-2-yl)-2-methylpropyl)ureido)-N,N-dimethylpicolinamide], the Kd – broadly, the concentration at which binding is half-saturated – was 100 to 250 nM.
The same measure, in the same setting: the same measure for `Cc1c(C(NC(=O)Nc2cccc(C(N)=O)c2)C(C)C)oc2ccc(F)c(F)c12` (racemic) [Compound 54, 3-(3-(1-(4,5-difluoro-3-methylbenzofuran-2-yl)-2-methylpropyl)ureido)benzamide]: 100 to 250 nM; for `CNS(=O)(=O)c1ccc(NC(=O)NC(C)c2oc3ccc(F)cc3c2C)cc1` (single isomer, unassigned) [Compound 14]: at least 500 nM; for `Cc1c([C@@H](NC(=O)Nc2ccc(S(C)(=O)=O)cc2)C(C)C)oc2ccccc12` [Compound 9, (S)-1-(2-methyl-1-(3-methylbenzofuran-2-yl)propyl)-3-(4-(methylsulfonyl)phenyl)urea]: 250 to 500 nM.
With `Cc1c([C@@H](NC(=O)Nc2ccc(S(C)(=O)=O)cc2)C2CC2)oc2ccc(F)cc12` [Compound 16, (S)-1-(cyclopropyl(5-fluoro-3-methylbenzofuran-2-yl)methyl)-3-(4-(methylsulfonyl)phenyl)urea], the Kd is at least 500 nM.
As to `Cc1c([C@@H](NC(=O)Nc2ccc(C(N)=O)cc2)C(C)C)oc2ccc(F)cc12` (single isomer, unassigned) [Compound 21], the dissociation constant (Kd) is 100 to 250 nM.
Regarding `Cc1c([C@@H](NC(=O)N[C@@H]2CCCN(S(C)(=O)=O)C2)C(C)C)oc2ccc(F)cc12` (single isomer, unassigned) [Compound 19], the Kd was at least 500 nM.
Consider `COC(=O)N1CCC[C@H](NC(=O)N[C@H](c2oc3ccc(F)cc3c2C)C(C)C)C1` [Compound 55, methyl (S)-3-(3-((S)-1-(5-fluoro-3-methylbenzofuran-2-yl)-2-methylpropyl)ureido)piperidine-1-carboxylate], for which the Kd is at least 500 nM.
`Cc1c([C@@H](NC(=O)Nc2cncc(C#N)c2)C2CC2)oc2ccc(F)cc12` [Compound 46, (S)-1-(5-cyanopyridin-3-yl)-3-(cyclopropyl(5-fluoro-3-methylbenzofuran-2-yl)methyl)urea]: the dissociation constant Kd is at least 500 nM.
In the case of `Cc1c(C(NC(=O)Nc2ccc(S(C)(=O)=O)cc2)C(C)C)oc2ccc(F)cc12` (single isomer, unassigned) [Compound 11], the dissociation constant Kd lay within 100 to 250 nM.
Turning to `Cc1c([C@@H](NC(=O)Nc2cccc(S(C)(=N)=O)c2)C(C)C)oc2ccc(F)cc12` (stereo partly drawn) [Compound 28, 1-((S)-1-(5-fluoro-3-methylbenzofuran-2-yl)-2-methylpropyl)-3-(3-(S-methylsulfonimidoyl)phenyl)urea], the Kd is 100 to 250 nM.
Still for that read-out and setting: the same measure for `Cc1c([C@@H](NC(=O)N[C@H]2CC[C@H](O)CC2)C(C)C)oc2ccc(F)cc12` [Compound 6, 1-((S)-1-(5-fluoro-3-methylbenzofuran-2-yl)-2-methylpropyl)-3-((1r,4S)-4-hydroxycyclohexyl)urea]: 250 to 500 nM.
Regarding `Cc1c([C@@H](NC(=O)Nc2cccc(S(N)(=O)=O)c2)C(C)C)oc2ccc(F)cc12` [Compound 17, (S)-3-(3-(1-(5-fluoro-3-methylbenzofuran-2-yl)-2-methylpropyl)ureido)benzenesulfonamide], the dissociation constant Kd was 250 to 500 nM.
In the case of `Cc1c([C@@H](C)NC(=O)Nc2ccc(C(N)=O)cc2)oc2ccc(F)cc12` [Compound 4, (R)-4-(3-(1-(5-fluoro-3-methylbenzofuran-2-yl)ethyl)ureido)benzamide], the Kd is at least 500 nM.
Take `Cc1c([C@@H](NC(=O)N[C@H]2CC[C@H](C(N)=O)CC2)C(C)C)oc2ccc(F)cc12` (relative stereo) [Compound 42, (1R,4r)-4-(3-((R*)-1-(5-fluoro-3-methylbenzofuran-2-yl)-2-methylpropyl)ureido)cyclohexane-1-carboxamide]: the dissociation constant (Kd) is at least 500 nM.
On the same count and under the same terms, as for `Cc1c([C@@H](NC(=O)N[C@H]2CC[C@H](O)CC2)C(C)C)oc2cccc(F)c12` [Compound 7, 1-((S)-1-(4-fluoro-3-methylbenzofuran-2-yl)-2-methylpropyl)-3-((1r, 4S)-4-hydroxycyclohexyl)urea], the figure is at least 500 nM.

The test system of another experiment is T47D pAKT (S473), PI3Kα H1047R mutation present. Kind of experiment: HTRF pAKT-T47D.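 Note: assay medium was RPMI with 10% FBS and 0.2 units/ml bovine insulin, without phenol red.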 Conditions: Homo sapiens, T47D, 1 h, read-out: T47D pAKT IC50 (nM), T47D.1 cells, pAKT (S473) HTRF, 1 hour. For orientation: TR-FRET usually uses a lanthanide donor and a delayed reading to cut background.
`Cc1c([C@@H](NC(=O)Nc2ccc(C(=O)N(C)C)nc2)C(C)C)oc2ccc(F)cc12` [Compound 65, (S)-5-(3-(1-(5-fluoro-3-methylbenzofuran-2-yl)-2-methylpropyl)ureido)-N,N-dimethylpicolinamide]: the half-maximal inhibitory concentration (IC50) (commonly the concentration needed to halve the response being measured) lay in the range of 1000 to 5000 nM.
For `Cc1c(C(NC(=O)Nc2cccc(C(N)=O)c2)C(C)C)oc2ccc(F)c(F)c12` (racemic) [Compound 54, 3-(3-(1-(4,5-difluoro-3-methylbenzofuran-2-yl)-2-methylpropyl)ureido)benzamide], the concentration for half-maximal inhibition (IC50) is above 5000 nM.
Regarding `Cc1c(C(NC(=O)Nc2cnc(N3CCC3)nc2)C(F)(F)F)oc2c(F)cc(F)cc12` (single isomer, unassigned) [Compound 223, 1-(2-(azetidin-1-yl)pyrimidin-5-yl)-3-(1-(5,7-difluoro-3-methylbenzofuran-2-yl)-2,2,2-trifluoroethyl)urea], the IC50 was below 1000 nM.
Same read-out and setting: as for `Cc1c([C@@H](NC(=O)Nc2cnc(N3CC(C(N)=O)C3)nc2)C(F)(F)F)oc2c(F)cc(F)cc12` [Compound 211], the figure is below 1000 nM; as for `Cc1c(C(NC(=O)Nc2cnc(N3CCC(O)CC3)nc2)C(F)(F)F)oc2c(F)cc(F)cc12` (single isomer, unassigned) [Compound 191], 1000 to 5000 nM.
The same measure, in the same setting: the same measure for `Cc1c([C@@H](NC(=O)Nc2cnc(NCC(C)(C)O)nc2)C(C)C)oc2ccc(F)cc12` [Compound 142]: below 1000 nM.
For the compound `Cc1c([C@@H](NC(=O)Nc2cnc(N3CC4(CCO4)C3)nc2)C(C)C)oc2ccc(F)cc12` [Compound 164, 3-[(1S)-1-(5-fluoro-3-methyl-1-benzofuran-2-yl)-2-methylpropyl]-1-(2-{1-oxa-6-azaspiro[3.3]heptan-6-yl}pyrimidin-5-yl)urea], the IC50 was below 1000 nM.
For `Cc1c([C@@H](NC(=O)Nc2cnc(N3CC(F)C3)nc2)C(F)(F)F)oc2ccc(F)cc12` [Compound 95, (R)-1-(2-(3-fluoroazetidin-1-yl)pyrimidin-5-yl)-3-(2,2,2-trifluoro-1-(5-fluoro-3-methylbenzofuran-2-yl)ethyl)urea], the IC50 was below 1000 nM.
Turning to `Cc1c([C@@H](NC(=O)Nc2cnc(N3CCS(=N)(=O)CC3)nc2)C(C)C)oc2ccc(F)cc12` [Compound 147, 3-[(1S)-1-(5-fluoro-3-methyl-1-benzofuran-2-yl)-2-methylpropyl]-1-[2-(1-imino-1-oxo-1lambda6-thiomorpholin-4-yl)pyrimidin-5-yl]urea], the half-inhibitory concentration (IC50) was below 1000 nM.
Take `Cc1c([C@H](NC(=O)Nc2cnc(N3CC[C@@H](O)C3)nc2)C(F)(F)F)oc2c(F)cc(F)cc12` [Compound 207]: the IC50 was above 5000 nM.

Staying with this experiment, now noted: read-out: T47D pAKT IC50; T47D.1 cells, pAKT (S473) HTRF, 1 hour.
`Cc1c(C(NC(=O)Nc2cnc(N3CC(F)C3)nc2)C(F)(F)F)oc2c(F)cc(F)cc12` (single isomer, unassigned) [Compound 226, 1-(1-(5,7-difluoro-3-methylbenzofuran-2-yl)-2,2,2-trifluoroethyl)-3-(2-(3-fluoroazetidin-1-yl)pyrimidin-5-yl)urea]: the IC50 was below 1000 nM.
Regarding `CCc1c(C(NC(=O)Nc2cnc(N)nc2)C(F)(F)F)oc2ccc(F)cc12` (racemic) [Compound 133, 1-(2-aminopyrimidin-5-yl)-3-[1-(3-ethyl-5-fluoro-1-benzofuran-2-yl)-2,2,2-trifluoroethyl]urea], the IC50 was above 5000 nM.
With `Cc1c(C(NC(=O)Nc2cnc(N)nc2)C(F)(F)F)oc2c(Br)cc(F)cc12` (single isomer, unassigned) [Compound 216, 1-(2-aminopyrimidin-5-yl)-3-[1-(7-bromo-5-fluoro-3-methyl-1-benzofuran-2-yl)-2,2,2-trifluoroethyl]urea], the 50% inhibitory concentration (IC50) is below 1000 nM.
